From patent publication US8153649B2, “3-aminoimidazo 1,2-A pyridine derivatives having an SGLT1- and SGLT2-inhibiting action for the treatment of type 1 and type 2 diabetes” (Merck Patent Gesellschaft mit beschrankter Haftung, priority 2006, dated 2012)

How the values were obtained:
SGLT1 = target: T1, SGLT1 (Homo sapiens, UniProt P13866); test: 14C-AMG uptake in BHK cells transfected with SGLT1; format: cell-based; details: 37° C., 90 min
T1 construct: expressed in transfected cells
T1 sequence (P13866 1-664): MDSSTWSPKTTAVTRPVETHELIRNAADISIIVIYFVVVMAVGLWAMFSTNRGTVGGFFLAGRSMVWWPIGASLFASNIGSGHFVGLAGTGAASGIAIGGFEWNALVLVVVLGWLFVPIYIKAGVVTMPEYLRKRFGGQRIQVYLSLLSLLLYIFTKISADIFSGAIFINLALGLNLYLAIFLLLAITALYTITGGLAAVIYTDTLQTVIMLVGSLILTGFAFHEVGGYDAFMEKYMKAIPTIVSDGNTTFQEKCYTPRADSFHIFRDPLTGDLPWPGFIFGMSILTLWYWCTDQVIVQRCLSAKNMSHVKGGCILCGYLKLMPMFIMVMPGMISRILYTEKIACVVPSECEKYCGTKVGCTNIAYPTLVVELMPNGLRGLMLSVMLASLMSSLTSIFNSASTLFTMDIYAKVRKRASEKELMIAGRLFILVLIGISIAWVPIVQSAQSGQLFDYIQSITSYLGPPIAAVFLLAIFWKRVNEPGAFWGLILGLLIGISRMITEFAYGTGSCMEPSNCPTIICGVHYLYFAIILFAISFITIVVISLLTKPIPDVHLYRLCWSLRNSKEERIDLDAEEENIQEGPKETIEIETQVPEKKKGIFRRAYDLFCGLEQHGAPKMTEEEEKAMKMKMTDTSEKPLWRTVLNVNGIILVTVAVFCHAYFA
Text: (§1) The compounds can be tested on their SGLT inhibition properties by means of BHK cells expressing SGLT1 and SGLT2. The production of the cells and the testing can be carried out as described below.
To construct the SGLT1 expression vector (KL225), the SLC5A1 gene (homologous to NM_000343) was amplified from a cDNA library using standard PCR technology and cloned over NheI/XhoI sites into the cDNA3.1 expression vector (Invitrogen) containing neomycin as a selection marker. In this vector, transcription uses the enhancer/promoter of human cytomegalovirus.
The final vector KL225 together with an additional vector containing a dihydrofolate reductase gene as a selection marker was introduced into cells. Transfection into BHK21 cells (ATCC CCL-10), cultivated in DMEM medium (GIBCO/BRL), supplemented with 10% foetal calf serum (FCS) and 20 mM glutamine, was carried out using calcium phosphate transfections according to Graham, F. L. and van der Ebb, A. J. (1973), Virology 52: 456 with 5-20 μg of uncut plasmids for 10^7 cells. Stable transfectants were selected in medium containing 1 mg/ml of G418 (GIBCO/BRL) and 20-5000 nM methotrexate as final concentration, where only cells which expressed the neomycin gene and overexpressed the dhfr gene were able to grow. After growth for 2-3 weeks, the cells were cloned (0.5 cells/well) and the clones were investigated for SGLT expression in the radioactivity uptake test. […]
(§2) A 96-well cell-based assay was developed and adapted to HIS requirements:
(§3) BHK cells (transfected with SGLT1 or SGLT2) were seeded into 96-well microtitre plates (Cultureplates, Perkin Elmer). After at least 24 h, medium was removed and the cell layer was washed with assay buffer (140 mM NaCl, 2 mM KCl, 1 mM CaCl2, 1 mM MgCl2, 10 mM HEPES, 5 mM Tris, adjusted with 1 M KOH to pH 7.4), After addition of 40 μl of assay buffer, 50 μl of AMG ([…] for SGLT1 and 2 mM for SGLT2) in the presence or absence of compounds, the cells were incubated in a total volume of 100 μl at 37° C. for 90 min. Supernatant was removed by suction and discarded. The cells were washed and lysed by addition of 50 μl of water. After 10 min at room temperature, 200 μl of Microscint 40 (Perkin Elmer) were added. The radioactivity was counted in a Topcount microplate scintillation counter (Perkin Elmer). The non-specific uptake was determined in sodium-free assay buffer (266 mM sucrose, 2 mM KCl, 1 mM CaCl2, 1 mM MgCl2, 10 mM HEPES, 5 mM Tris, adjusted to pH 7.4 using 1 M KOH).

SGLT2 = target: T2, SGLT2 (Homo sapiens, UniProt P31639); test: 14C-AMG uptake in BHK cells transfected with SGLT2; format: cell-based; details: 37° C., 90 min
T2 construct: expressed in transfected cells
T2 sequence (P31639 1-672): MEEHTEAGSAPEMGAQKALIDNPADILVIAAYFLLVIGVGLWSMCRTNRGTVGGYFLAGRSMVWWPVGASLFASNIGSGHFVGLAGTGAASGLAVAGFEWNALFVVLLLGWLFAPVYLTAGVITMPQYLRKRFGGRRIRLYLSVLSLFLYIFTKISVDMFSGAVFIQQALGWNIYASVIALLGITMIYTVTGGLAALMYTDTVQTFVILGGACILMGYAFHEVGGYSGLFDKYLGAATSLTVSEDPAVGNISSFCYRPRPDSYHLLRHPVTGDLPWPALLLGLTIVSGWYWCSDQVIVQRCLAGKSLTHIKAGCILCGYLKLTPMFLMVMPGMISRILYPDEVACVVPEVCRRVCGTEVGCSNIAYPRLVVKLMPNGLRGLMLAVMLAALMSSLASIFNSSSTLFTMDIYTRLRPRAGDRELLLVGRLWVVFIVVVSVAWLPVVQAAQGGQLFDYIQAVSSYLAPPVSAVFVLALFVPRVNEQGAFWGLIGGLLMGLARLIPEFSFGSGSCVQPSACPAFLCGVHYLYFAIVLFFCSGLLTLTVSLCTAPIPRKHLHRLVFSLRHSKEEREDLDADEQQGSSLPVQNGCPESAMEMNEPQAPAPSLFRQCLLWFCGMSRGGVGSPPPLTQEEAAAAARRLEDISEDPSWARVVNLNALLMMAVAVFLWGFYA
Text: as §1
To construct the SGLT2 expression vector (KL224), the SLC5A2 gene (homologous to NM_003041) was amplified from a cDNA library using standard PCR technology and cloned over NheI/XhoI sites into PCI-neo expression vector (Promega) containing neomycin as a selection marker. In this vector, transcription uses the enhancer/promoter of human cytomegalovirus and the SV40 polyadenylation signal.
The final vector KL224 together with an additional vector containing a dihydrofolate reductase gene as a selection marker was introduced into cells. Transfection into BHK21 cells (ATCC CCL-10), cultivated in DMEM medium (GIBCO/BRL), supplemented with 10% foetal calf serum (FCS) and 20 mM glutamine, was carried out using calcium phosphate transfections according to Graham, F. L. and van der Ebb, A. J. (1973), Virology 52: 456 with 5-20 μg of uncut plasmids for 10^7 cells. Stable transfectants were selected in medium containing 1 mg/ml of G418 (GIBCO/BRL) and 20-5000 nM methotrexate as final concentration, where only cells which expressed the neomycin gene and overexpressed the dhfr gene were able to grow. After growth for 2-3 weeks, the cells were cloned (0.5 cells/well) and the clones were investigated for SGLT expression in the radioactive uptake test,
The uptake of ^14C-α-methyl-D-glucopyranoside (AMG) in, for example, Xenopus oocytes injected with the corresponding cRNA has been described in principle (for example Wen-Sen Lee et al. (1994), J. Biol. Chem. 269, 12032-12039; Guofeng You et al. (1995), J. Biol. Chem. 270, 29365-29371).
as §2, §3

Structure (SMILES)	IC50 (SGLT1) [nM]	IC50 (SGLT2) [nM]
Cc1cccc(C)c1Nc1c(-c2ccccc2-c2cccs2)nc2ccc(F)cn12 [Compound A3]	> 10000	1000 to 10000
Cc1cccc(C)c1Nc1c(-c2c(-n3cccn3)cccc2-n2cccn2)nc2ccc(F)cn12 [Compound A5, (2,6-Dimethylphenyl)-[2-(2,6-dipyrazol-1-yl-phenyl)-6-fluoroimidazo[1,2-a]pyridin-3-yl]-amine]	1000 to 10000	1000 to 10000
Cc1cccc(C)c1Nc1c(-c2c(Cl)cccc2-c2nnc(N)o2)nc2ccc(F)cn12 [Compound B2]	> 10000	10 to 1000
CNc1nnc(-c2cc(OC)c(OC)cc2-c2nc3ccc(F)cn3c2Nc2c(C)cc(F)cc2C)o1 [Compound C3]	> 10000	1000 to 10000
Cc1cccc(C)c1Nc1c(-c2ccccc2-c2cccc(C(=O)O)c2)nc2ccccn12 [Compound A2, 2′-[3-(2,6-Dimethylphenylamino)imidazo [1,2-a]pyridin-2-yl]biphenyl-3-carboxylic acid]	> 10000	> 10000
CNc1nnc(-c2cc(O)c(O)cc2-c2nc3ccc(F)cn3c2Nc2c(C)cc(F)cc2C)o1 [Compound C2]	> 10000	1000 to 10000
CNc1nnc(-c2ccccc2-c2nc3ccc(F)cn3c2Nc2c(C)cccc2C)o1 [Compound C1, (2,6-dimethylphenyl)-{6-fluoro-2-[2-(5-methylamino-1,3,4-oxadiazol-2-yl)phenyl]imidazo[1,2-a]pyridin-3-yl}amine]	1000 to 10000	10 to 1000
Cc1nc(-c2ccccc2-c2nc3ccc(F)cn3c2Nc2c(C)cccc2C)no1 [Compound A10]	1000 to 10000	10 to 1000
CNc1nnc(-c2c(-c3nc4ccc(F)cn4c3Nc3c(C)cccc3C)c3ccccc3n2C)o1 [Compound C12, (2,6-Dimethylphenyl)-{6-fluoro-2-[1-methyl-2-(5-methylamino-1,3,4-oxadiazol-2-yl)-1H-indol-3-yl]imidazo[1,2-a]pyridin-3-yl}amine]	1000 to 10000	10 to 1000
Cc1cccc(C)c1Nc1c(-c2ccccc2-c2nnc(N(C)C)o2)nc2ccc(F)cn12 [Compound C4]	1000 to 10000	10 to 1000
CNc1nnc(-c2sc3ccccc3c2-c2nc3ccc(F)cn3c2Nc2c(C)cccc2C)o1 [Compound C13, (2,6-Dimethylpheny1)-{6-fluoro-2-[2-(5-methylamino-1,3,4-oxadiazol-2-y1)-benzo[b]thiophen-3-yl]imidazo[1,2-a]pyridin-3-yl}amine]	10 to 1000	10 to 1000
Cc1cccc(C)c1Nc1c(-c2ccccc2-c2cncnc2)nc2ccccn12 [Compound A9]	1000 to 10000	10 to 1000
Cc1cccc(C)c1Nc1c(-c2ccccc2-n2cccn2)nc2ccc(F)cn12 [Compound A6]	> 10000	1000 to 10000
Cc1cccc(C)c1Nc1c(-c2ccccc2-c2cccc(C(N)=O)c2)nc2ccccn12 [Compound A4]	1000 to 10000	1000 to 10000
Cc1cccc(C)c1Nc1c(-c2ccccc2-c2cccnc2)nc2ccc(F)cn12 [Compound A11]	1000 to 10000	10 to 1000
Cc1cccc(C)c1Nc1c(-c2ccccc2-c2nnc(N)o2)nc2ccc(F)cn12 [Compound B1, {2-[2-(5-amino-1,3,4-oxadiazol-2-yl)phenyl]-6-fluoroimidazo[1,2-a]pyridin-3-yl}-(2,6-dimethylphenyl)amine]	> 10000	10 to 1000
Cc1cccc(C)c1Nc1c(-c2ccccc2-c2ccc([N+](=O)[O-])s2)nc2ccc(F)cn12 [Compound A8]	1000 to 10000	1000 to 10000
CCNc1nnc(-c2ccccc2-c2nc3ccc(F)cn3c2Nc2c(C)cccc2C)o1 [Compound C5]	1000 to 10000	10 to 1000
Cc1cccc(C)c1Nc1c(-c2ccccc2-c2ccc(C(N)=O)o2)nc2ccc(F)cn12 [Compound A7]	1000 to 10000	1000 to 10000
Cc1cccc(C)c1Nc1c(-c2ccccc2-c2nccs2)nc2ccc(F)cn12 [Compound A1, (2,6-dimethylphenyl)-[6-fluoro-2-(2-thiazol-2-ylphenyl)-imidazo[1,2-a]pyridin-3-yl]amine]	> 10000	> 10000
